Target: T1, vitamin D binding protein (Homo sapiens, UniProt P02774)
T1 sequence (P02774 17-474): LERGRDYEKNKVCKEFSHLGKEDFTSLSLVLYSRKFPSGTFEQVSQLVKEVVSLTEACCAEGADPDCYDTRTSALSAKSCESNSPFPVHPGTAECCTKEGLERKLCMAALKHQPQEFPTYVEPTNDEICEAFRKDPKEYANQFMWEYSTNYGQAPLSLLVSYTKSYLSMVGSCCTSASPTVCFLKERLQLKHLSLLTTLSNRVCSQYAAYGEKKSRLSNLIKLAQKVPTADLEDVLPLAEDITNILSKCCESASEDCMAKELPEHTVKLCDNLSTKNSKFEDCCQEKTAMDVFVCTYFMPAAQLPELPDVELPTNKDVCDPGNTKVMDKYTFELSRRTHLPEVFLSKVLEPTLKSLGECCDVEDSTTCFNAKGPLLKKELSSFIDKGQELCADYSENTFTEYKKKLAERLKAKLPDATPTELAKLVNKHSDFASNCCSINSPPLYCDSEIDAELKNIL
Assay: BIACORE assessment of release of vitamin D binding protein from immobilised biotinylated 25-hydroxyvitamin D3
Settings: BIACORE streptavidin chip saturated with biotinylated 25-hydroxyvitamin D3 and vitamin D binding protein; release monitored for 3 min
Excerpt: For this assessment a streptavidin-coated BIACORE chip is used. This streptavidin-chip is then saturated with a biotinylated 25-hydroxyvitamin D3 and thereafter with vitamin D binding protein. […] The BIACORE system is used to assess whether a reagent considered to be a potential candidate for releasing vitamin D from vitamin D binding protein will be efficient in releasing of vitamin D binding protein to a vitamin D metabolite. A sensor chip coated with streptavidin (Sensor Chip SA, BIACORE AB, BR-1000-32) is used for immobilization of a biotinylated vitamin D metabolite of interest. The assessment is best performed by use of the vitamin D metabolite 25OH vitamin D3. The sensor chip is first incubated with a saturating concentration of biotinylated 25-hydroxyvitamin D3, Then the chip is loaded with a saturating amount of vitamin D binding protein. Then the vitamin D binding protein saturated chip is incubated with a sodium chloride solution one the one hand and a candidate vitamin D releasing reagent in various concentrations on the other hand. The release of vitamin D binding protein is monitored for 3 min. A candidate vitamin D releasing reagent causing the release of at least […] vitamin D binding protein in the above system is appropriate to meet the minimal requirements for a vitamin D releasing reagent used in the detection of a vitamin D metabolite in a sample of serum or plasma 25-hydroxyvitamin D3. Between each run the 25-hydroxyvitamin D3-coated SA-chip is regenerated by washing it with 10 mM Gly/HCl pH 1.7 for 1 min. As non-specific control a reference flow cell coated with biotin on the same chip was used. The data of the reference flow cell are subtracted from those of the biospecific flow cell. Thus specific data free of non-specific effects are obtained.

| Molecule | Concentration of releasing reagent required for release off >95% vitamin D binding protein from 25OH-vitamin D3 |
| --- | --- |
| CCCC[n+]1cccc(C)c1.N#C[S-] [BMP-SCN, 1-Butyl-3-methyl-pyridinium-thiocyanate] | 6 % volume/volume |
| CCCC[n+]1cccc(C)c1.[Cl-] [BMP-Cl, 1-Butyl-3-methyl-pyridinium-chloride] | 12 % volume/volume |
| 1-Butyl-3-methyl-imidazolium-octylsulfate [BMI-OSO4] | 0.5 % volume/volume |

Continued, values first:

| Concentration of releasing reagent required for release off >95% vitamin D binding protein from 25OH-vitamin D3 | Molecule |
| --- | --- |
| 6 % volume/volume | CCCC[n+]1ccc(C)cc1.F[B-](F)(F)F [BMP-TFB, 1-Butyl-4-methyl-pyridinium-tetrafluoroborate] |
| 6 % volume/volume | CCCCCC[n+]1ccccc1.[Cl-] [HP-Cl, 1-Hexylpyridinium-chloride] |
| 8 % volume/volume | CCCCn1cc[n+](C)c1.F[B-](F)(F)F [BMI-TFB, 1-Butyl-3-methyl-imidazolium-tetrafluoroborate] |
| 3 % volume/volume | CCCCCCCC[N+]1(C)CCCC1.[Cl-] [MOP-Cl, 1-Methyl-1-octyl-pyrrolidinium-chloride] |
| 3 % volume/volume | CCCCCCCC[n+]1ccccc1.[Cl-] [NOP-Cl, N-Octylpyridinium-chloride] |

From patent US8003400B2, “Measurement of vitamin D” (Roche Diagnostics Operations, Inc., priority 2006, dated 2011)
